Among the data in ChEMBL document CHEMBL3352431, “Furazan and furoxan sulfonamides are strong α-carbonic anhydrase inhibitors and potential antiglaucoma agents” (Bioorg Med Chem, 2014) are Ki and Activity values, retold here.

One assay addresses Carbonic anhydrase 9 (Homo sapiens, UniProt Q16790). Nature of the assay: Inhibition of human CA9 by CO2 hydration activity based stopped flow assay.
In assay [1] the test system is Oryctolagus cuniculus. Nature of the assay: Antiglaucoma activity in New Zealand rabbit model of hypertonic saline-induced ocular hypertension assessed as reduction in intraocular pressure dosed with 50 uL of 2% compound solution and measured after 2 hrs. Type of assay: functional, Eye.
Assay [2] concerns Oryctolagus cuniculus. As to the kind of experiment: Antiglaucoma activity in New Zealand rabbit model of carbomer-induced ocular hypertension assessed as reduction in intraocular pressure dosed with 50 uL of 2% compound solution and measured after 3 to 4 hrs. Type of assay: functional, Eye.
Assay [3] relates to Oryctolagus cuniculus. Nature of the assay: Antiglaucoma activity in New Zealand rabbit model of hypertonic saline-induced ocular hypertension assessed as reduction in intraocular pressure dosed with 50 uL of 2% compound solution and measured after 1 to 2 hrs. Type of assay: functional, Eye.

Turning to `NS(=O)(=O)c1ccc(-c2nonc2[N+](=O)[O-])cc1`, the affinity at Carbonic anhydrase 9, expressed as Ki, was 54.7 nM.
Still for that read-out and setting: then `NS(=O)(=O)c1ccc(-c2c(-c3ccccc3)no[n+]2[O-])cc1`, with 58 nM; and `NS(=O)(=O)c1ccc(-c2nonc2Oc2ccccc2)cc1`, with 71.1 nM.
Consider `NS(=O)(=O)c1nonc1Oc1ccccc1`, for which the inhibition constant Ki on Carbonic anhydrase 9 amounted to 6.3 nM.
As to `NS(=O)(=O)c1ccc(OCc2nonc2-c2ccccc2)cc1`, the affinity on Carbonic anhydrase 9, expressed as Ki, was 110 nM.
Take `N#Cc1c(COc2ccc(S(N)(=O)=O)cc2)no[n+]1[O-]`: the Activity in the assay on Oryctolagus cuniculus [1] is 8 mmHg. For the same molecule, the inhibition constant Ki at Carbonic anhydrase 9 turned out to be 11.3 nM.
In turn, `Cc1nonc1S(N)(=O)=O` yielded a Ki at Carbonic anhydrase 9 of 7.9 nM. Also, the Activity with Oryctolagus cuniculus [2] came out at 10 mmHg.
In the case of `NS(=O)(=O)c1no[n+]([O-])c1-c1ccccc1`, the Ki at Carbonic anhydrase 9 stood at 7.1 nM.
Same read-out and setting: then `NS(=O)(=O)c1ccc(-c2c([N+](=O)[O-])no[n+]2[O-])cc1`, with 54.5 nM.
At Carbonic anhydrase 9, `Cc1c(S(N)(=O)=O)no[n+]1[O-]` came in with an inhibition constant Ki of 7.3 nM. The Activity in the assay with Oryctolagus cuniculus [2] was 10 mmHg.
The molecule `NS(=O)(=O)c1ccc(-c2nonc2Sc2ccccc2)cc1` had an inhibition constant Ki at Carbonic anhydrase 9 of 57.6 nM.
Turning to `NS(=O)(=O)c1ccc(-c2nonc2-c2ccccc2)cc1`, the Ki at Carbonic anhydrase 9 came out at 62.9 nM.
Molecule `NS(=O)(=O)c1c(-c2ccccc2)no[n+]1[O-]` yielded an inhibition constant (Ki) at Carbonic anhydrase 9 of 7.4 nM.
Still for that read-out and setting: next, `NS(=O)(=O)c1ccc(Oc2no[n+]([O-])c2S(=O)(=O)c2ccccc2)cc1`: 6.4 nM.
Still for that read-out and setting: next, `NS(=O)(=O)c1ccc(-c2c(S(=O)(=O)c3ccccc3)no[n+]2[O-])cc1`: 34.5 nM.
On the same count and under the same terms, then `NS(=O)(=O)c1ccc(-c2c(Oc3ccccc3)no[n+]2[O-])cc1`, with 63.9 nM; and `CCCCOc1nonc1S(N)(=O)=O`, with 4.8 nM.
With `NS(=O)(=O)c1nonc1OCc1ccccc1`, affinity at Carbonic anhydrase 9 was put at a Ki of 5.8 nM.
The same measure, in the same setting: next, `NS(=O)(=O)c1ccc(-c2no[n+]([O-])c2-c2ccccc2)cc1`: 62.8 nM; `NS(=O)(=O)c1ccc(-c2c(Sc3ccccc3)no[n+]2[O-])cc1`: 5040 nM.
Turning to `NC(=O)c1c(COc2ccc(S(N)(=O)=O)cc2)no[n+]1[O-]`, in the assay on Oryctolagus cuniculus [3], the Activity was 5 mmHg. For the same molecule, on Carbonic anhydrase 9, the affinity corresponds to a Ki of 32.3 nM.
In the case of `NS(=O)(=O)c1nonc1-c1ccccc1`, the affinity at Carbonic anhydrase 9 corresponds to a Ki of 6.3 nM.
With `N#Cc1nonc1COc1ccc(S(N)(=O)=O)cc1`, the Activity in the assay with Oryctolagus cuniculus [1] is 8 mmHg. Further, on Carbonic anhydrase 9, the Ki is 10.8 nM.
As for `COc1nonc1S(N)(=O)=O`, the Ki on Carbonic anhydrase 9 is 5.8 nM.
The same measure, in the same setting: then `NS(=O)(=O)c1ccc(OCc2no[n+]([O-])c2-c2ccccc2)cc1`, with 47.9 nM.
Turning to `NC(=O)c1nonc1COc1ccc(S(N)(=O)=O)cc1`, the Activity with Oryctolagus cuniculus [3] is given as 5 mmHg. Also, affinity at Carbonic anhydrase 9 was put at a Ki of 49.8 nM.
Molecule `CCOc1nonc1S(N)(=O)=O` yielded a Ki on Carbonic anhydrase 9 of 6.6 nM.
`NS(=O)(=O)c1ccc(Oc2nonc2S(=O)(=O)c2ccccc2)cc1` gave a Ki at Carbonic anhydrase 9 of 7.3 nM.
In the case of `CC(C)COc1nonc1S(N)(=O)=O`, on Carbonic anhydrase 9, the affinity corresponds to a Ki of 3.9 nM.
Still for that read-out and setting: next, `NS(=O)(=O)c1ccc(-c2nonc2S(=O)(=O)c2ccccc2)cc1`: 63.6 nM.
Turning to `Cc1no[n+]([O-])c1S(N)(=O)=O`, on Carbonic anhydrase 9, the Ki was 6.5 nM. Also, the Activity in the assay on Oryctolagus cuniculus [2] is recorded as 10 mmHg.

What is called Ki is a dissociation constant, usually derived from enzyme kinetics or from competition with a known ligand. A higher Ki goes with weaker binding.
